# In ChEMBL document CHEMBL4414548 (J Med Chem, 2019):
# pIC50: −log10 of the molar value.
# Legend:
# [1] = Cmax in Balb/c mouse assessed as 6-((5-Fluoropyridin-2-yl)amino)-4-((2-(methylsulfonyl)phenyl)amino)nicotinamide level at 10 mg/kg, po after 5 hrs; format: ADME, organism-based; parameters: dose 10 mg/kg, route oral; settings: in vivo
# [2] = Clearance in Balb/c mouse at 3 mg/kg, iv; format: ADME, organism-based; settings: in vivo
# [3] = Drug concentration in Balb/c mouse at 3 mg/kg, iv after 5 hrs; format: ADME, organism-based; settings: in vivo, read-out: Drug uptake
# [4] = Cmax in Balb/c mouse assessed as 6-((5-Fluoropyridin-2-yl)amino)-4-((2-(methylsulfonyl)phenyl)amino)nicotinamide level at 10 mg/kg, po after 0.5 hrs; format: ADME, organism-based; parameters: dose 10 mg/kg, route oral; settings: in vivo
# [5] = Metabolic stability in rat liver microsomes assessed as parent compound remaining after 10 mins; format: ADME, Microsome; settings: read-out: Stability
# [6] = Cmax in Balb/c mouse assessed as 6-((5-Fluoropyridin-2-yl)amino)-4-((2-(methylsulfonyl)phenyl)amino)nicotinamide level at 10 mg/kg, po after 1 hr; format: ADME, organism-based; parameters: dose 10 mg/kg, route oral; settings: in vivo
# [7] = AUClast in Balb/c mouse at 3 mg/kg, iv; format: ADME, organism-based; parameters: dose 3 mg/kg, route intravenous, time 0 - last; settings: in vivo
# [8] = Drug concentration in Balb/c mouse at 10 mg/kg, po after 0.5 hrs; format: ADME, organism-based; settings: in vivo, read-out: Drug uptake
# [9] = target: Tyrosine-protein kinase JAK1 (Homo sapiens, UniProt P23458); test: Inhibition of JAK1 JH1 domain (unknown origin)
# [10] = Cmax in Balb/c mouse assessed as 6-((5-Fluoropyridin-2-yl)amino)-4-((2-(methylsulfonyl)phenyl)amino)nicotinamide level at 3 mg/kg, iv after 0.05 hrs; format: ADME, organism-based; parameters: dose 3 mg/kg, route intravenous; settings: in vivo
# JAK2/TYK2 = JAK2/TYK2 (Homo sapiens, UniProt O60674+P29597); test: Inhibition of TYK2/JAK2 in IL23-stimulated human Kit225 cells by steady-glo luciferase assay
# Sequence of JAK2/TYK2 (O60674 whole entry): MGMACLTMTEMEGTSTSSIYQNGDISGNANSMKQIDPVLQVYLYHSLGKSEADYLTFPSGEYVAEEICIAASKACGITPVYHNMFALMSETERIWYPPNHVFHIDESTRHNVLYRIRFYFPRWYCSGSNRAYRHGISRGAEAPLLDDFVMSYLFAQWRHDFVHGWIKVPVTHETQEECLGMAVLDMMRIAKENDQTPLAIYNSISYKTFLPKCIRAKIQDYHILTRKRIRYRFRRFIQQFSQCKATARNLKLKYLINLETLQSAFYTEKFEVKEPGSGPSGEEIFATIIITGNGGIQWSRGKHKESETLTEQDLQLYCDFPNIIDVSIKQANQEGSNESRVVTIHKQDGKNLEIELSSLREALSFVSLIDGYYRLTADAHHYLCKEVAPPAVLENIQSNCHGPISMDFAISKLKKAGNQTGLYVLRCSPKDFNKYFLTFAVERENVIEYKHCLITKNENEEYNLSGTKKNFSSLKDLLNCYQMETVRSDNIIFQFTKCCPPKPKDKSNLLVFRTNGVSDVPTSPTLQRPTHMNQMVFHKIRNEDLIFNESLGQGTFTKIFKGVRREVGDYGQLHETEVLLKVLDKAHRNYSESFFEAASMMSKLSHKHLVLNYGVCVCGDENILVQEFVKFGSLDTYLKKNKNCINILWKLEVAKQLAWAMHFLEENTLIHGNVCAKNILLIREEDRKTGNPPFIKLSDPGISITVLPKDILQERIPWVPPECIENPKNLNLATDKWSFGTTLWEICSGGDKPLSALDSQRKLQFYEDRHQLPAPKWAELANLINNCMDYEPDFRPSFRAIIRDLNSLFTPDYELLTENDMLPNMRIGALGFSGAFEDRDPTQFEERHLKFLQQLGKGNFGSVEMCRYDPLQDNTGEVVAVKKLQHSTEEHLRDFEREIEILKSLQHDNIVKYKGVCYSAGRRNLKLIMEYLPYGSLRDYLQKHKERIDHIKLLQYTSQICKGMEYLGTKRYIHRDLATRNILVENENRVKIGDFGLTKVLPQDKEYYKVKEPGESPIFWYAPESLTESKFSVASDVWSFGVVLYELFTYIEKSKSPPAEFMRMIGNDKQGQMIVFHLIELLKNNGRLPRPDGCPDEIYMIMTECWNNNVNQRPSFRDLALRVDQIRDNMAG
# Sequence of JAK2/TYK2 (P29597 whole entry): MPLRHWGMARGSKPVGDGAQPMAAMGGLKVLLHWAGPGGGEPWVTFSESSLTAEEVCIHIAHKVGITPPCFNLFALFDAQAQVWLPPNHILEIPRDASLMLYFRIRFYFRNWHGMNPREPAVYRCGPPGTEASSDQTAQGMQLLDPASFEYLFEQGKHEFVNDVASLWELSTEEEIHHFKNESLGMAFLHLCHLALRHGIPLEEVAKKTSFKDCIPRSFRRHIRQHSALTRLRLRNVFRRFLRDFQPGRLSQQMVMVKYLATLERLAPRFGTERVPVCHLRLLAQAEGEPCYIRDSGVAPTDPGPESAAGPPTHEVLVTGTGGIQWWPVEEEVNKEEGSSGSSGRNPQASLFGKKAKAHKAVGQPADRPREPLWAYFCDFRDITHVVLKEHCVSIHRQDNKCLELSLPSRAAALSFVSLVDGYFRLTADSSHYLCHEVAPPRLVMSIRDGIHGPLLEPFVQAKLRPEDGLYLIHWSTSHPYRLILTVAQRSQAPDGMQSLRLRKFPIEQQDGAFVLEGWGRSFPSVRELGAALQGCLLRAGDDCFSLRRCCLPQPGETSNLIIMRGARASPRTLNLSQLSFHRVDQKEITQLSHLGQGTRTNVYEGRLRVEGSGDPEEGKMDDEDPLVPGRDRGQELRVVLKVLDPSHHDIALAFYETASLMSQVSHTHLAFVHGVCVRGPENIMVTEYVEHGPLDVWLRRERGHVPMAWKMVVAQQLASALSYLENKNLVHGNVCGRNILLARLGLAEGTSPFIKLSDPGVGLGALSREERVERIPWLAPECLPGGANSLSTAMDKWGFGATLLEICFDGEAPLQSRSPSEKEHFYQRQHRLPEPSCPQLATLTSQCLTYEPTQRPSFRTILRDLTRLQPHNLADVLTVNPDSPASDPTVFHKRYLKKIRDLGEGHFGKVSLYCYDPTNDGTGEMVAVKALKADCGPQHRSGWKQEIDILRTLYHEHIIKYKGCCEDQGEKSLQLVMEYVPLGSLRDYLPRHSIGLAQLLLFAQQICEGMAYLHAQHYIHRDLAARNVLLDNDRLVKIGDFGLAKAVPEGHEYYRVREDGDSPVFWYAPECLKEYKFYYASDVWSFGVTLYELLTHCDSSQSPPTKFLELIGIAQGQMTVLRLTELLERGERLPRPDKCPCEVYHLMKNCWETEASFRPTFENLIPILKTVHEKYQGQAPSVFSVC
# [11] = Drug concentration in Balb/c mouse at 3 mg/kg, iv after 3 hrs; format: ADME, organism-based; settings: in vivo, read-out: Drug uptake
# [12] = Metabolic stability in human liver microsomes assessed as parent compound remaining after 10 mins; format: ADME, Microsome; settings: read-out: Stability
# [13] = AUClast in Balb/c mouse assessed as 6-((5-Fluoropyridin-2-yl)amino)-4-((2-(methylsulfonyl)phenyl)amino)nicotinamide level at 10 mg/kg, po; format: ADME, organism-based; parameters: dose 10 mg/kg, time 0 - last, route oral; settings: in vivo
# [14] = Drug concentration in Balb/c mouse at 3 mg/kg, iv after 0.5 hrs; format: ADME, organism-based; settings: in vivo, read-out: Drug uptake
# [15] = target: T1, Non-receptor tyrosine-protein kinase TYK2 (Homo sapiens, UniProt P29597); test: Inhibition of fluorescein-labeled kinase tracer binding to His-TVMV-fused TYK2 JH2 domain (575 to 869 residues) (unknown origin) measured after 90 mins by HTRF assay
# T1 sequence (P29597 whole entry, the tested form may be a part): as the sequence (P29597 whole entry) above
# [16] = Drug concentration in Balb/c mouse at 3 mg/kg, iv after 7 hrs; format: ADME, organism-based; settings: in vivo, read-out: Drug uptake
# [17] = Drug concentration in Balb/c mouse at 10 mg/kg, po after 1 hr; format: ADME, organism-based; settings: in vivo, read-out: Drug uptake
# [18] = target: T1, Non-receptor tyrosine-protein kinase TYK2; test: Inhibition of TYK2 JH1 domain (unknown origin)
# [19] = Drug concentration in Balb/c mouse at 3 mg/kg, iv after 0.05 hrs; format: ADME, organism-based; settings: in vivo, read-out: Drug uptake
# [20] = target: T2, Voltage-gated inwardly rectifying potassium channel KCNH2 (Homo sapiens, UniProt Q12809); test: Inhibition of human ERG by fluorescence polarization assay
# T2 sequence (Q12809 whole entry): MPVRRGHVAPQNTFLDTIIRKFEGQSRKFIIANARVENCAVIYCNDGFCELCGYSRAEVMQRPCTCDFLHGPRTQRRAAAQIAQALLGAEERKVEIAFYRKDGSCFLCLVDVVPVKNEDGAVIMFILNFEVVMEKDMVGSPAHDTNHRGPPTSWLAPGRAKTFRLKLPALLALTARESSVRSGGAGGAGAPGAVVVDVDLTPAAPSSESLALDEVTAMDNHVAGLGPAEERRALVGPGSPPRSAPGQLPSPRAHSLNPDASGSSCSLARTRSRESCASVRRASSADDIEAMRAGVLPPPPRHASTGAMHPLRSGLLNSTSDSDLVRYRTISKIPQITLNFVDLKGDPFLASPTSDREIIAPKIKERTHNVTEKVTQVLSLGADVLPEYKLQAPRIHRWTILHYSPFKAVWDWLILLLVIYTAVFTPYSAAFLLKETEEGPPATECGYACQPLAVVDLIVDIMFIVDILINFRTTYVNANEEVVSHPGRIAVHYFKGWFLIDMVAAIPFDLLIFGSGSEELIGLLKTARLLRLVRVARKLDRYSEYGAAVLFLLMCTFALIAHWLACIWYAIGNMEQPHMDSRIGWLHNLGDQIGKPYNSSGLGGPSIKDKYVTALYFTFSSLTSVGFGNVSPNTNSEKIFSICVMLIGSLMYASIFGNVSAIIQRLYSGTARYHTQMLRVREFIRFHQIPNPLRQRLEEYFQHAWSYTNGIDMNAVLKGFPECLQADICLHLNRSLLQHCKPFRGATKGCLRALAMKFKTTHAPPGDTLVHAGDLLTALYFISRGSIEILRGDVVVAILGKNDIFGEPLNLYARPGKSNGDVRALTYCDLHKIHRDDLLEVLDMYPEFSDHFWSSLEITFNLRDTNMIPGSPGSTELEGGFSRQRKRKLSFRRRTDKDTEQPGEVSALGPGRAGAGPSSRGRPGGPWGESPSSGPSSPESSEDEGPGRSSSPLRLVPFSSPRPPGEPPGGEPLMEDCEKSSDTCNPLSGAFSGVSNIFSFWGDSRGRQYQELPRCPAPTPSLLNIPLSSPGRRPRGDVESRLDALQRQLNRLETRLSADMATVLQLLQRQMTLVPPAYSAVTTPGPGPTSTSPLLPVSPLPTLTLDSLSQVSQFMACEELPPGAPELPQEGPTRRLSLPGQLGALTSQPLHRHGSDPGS
# [21] = Drug concentration in Balb/c mouse at 10 mg/kg, po after 7 hrs; format: ADME, organism-based; settings: in vivo, read-out: Drug uptake
# [22] = target: Tyrosine-protein kinase JAK2 (Homo sapiens, UniProt O60674); test: Inhibition of JAK2 JH1 domain (unknown origin)
# Sequence of Tyrosine-protein kinase JAK2 (O60674 whole entry, the tested form may be a part): as the sequence (O60674 whole entry) above
# [23] = Cmax in Balb/c mouse assessed as 6-((5-Fluoropyridin-2-yl)amino)-4-((2-(methylsulfonyl)phenyl)amino)nicotinamide level at 3 mg/kg, iv after 3 hrs; format: ADME, organism-based; parameters: dose 3 mg/kg, route intravenous; settings: in vivo
# [24] = Cmax in Balb/c mouse assessed as 6-((5-Fluoropyridin-2-yl)amino)-4-((2-(methylsulfonyl)phenyl)amino)nicotinamide level at 3 mg/kg, iv after 7 hrs; format: ADME, organism-based; parameters: dose 3 mg/kg, route intravenous; settings: in vivo
# [25] = target: T1, Non-receptor tyrosine-protein kinase TYK2; test: Inhibition of TYK2 JH2 domain in human whole blood assessed as inhibition of IFNalpha-induced STAT5 phosphorylation preincubated for 1 hr followed by IFNalpha stimulation and measured after 15 mins by fluorescence assay; format: tissue-based
# [26] = Cmax in Balb/c mouse assessed as 6-((5-Fluoropyridin-2-yl)amino)-4-((2-(methylsulfonyl)phenyl)amino)nicotinamide level at 10 mg/kg, po after 3 hrs; format: ADME, organism-based; parameters: dose 10 mg/kg, route oral; settings: in vivo
# [27] = AUClast in Balb/c mouse at 10 mg/kg, po; format: ADME, organism-based; parameters: dose 10 mg/kg, time 0 - last, route oral; settings: in vivo
# [28] = target: Mast/stem cell growth factor receptor Kit (Homo sapiens, UniProt P10721); test: Inhibition of cKIT (unknown origin)
# [29] = target: Non-receptor tyrosine-protein kinase TYK2 (Mus musculus, UniProt Q9R117); test: Inhibition of TYK2 JH2 domain in mouse whole blood assessed as inhibition of IFNalpha-induced STAT1 phosphorylation preincubated for 1 hr followed by IFNalpha stimulation and measured after 15 mins by fluorescence assay; format: tissue-based
# Sequence of Non-receptor tyrosine-protein kinase TYK2 (Mus musculus, UniProt Q9R117) (Q9R117 whole entry, the tested form may be a part): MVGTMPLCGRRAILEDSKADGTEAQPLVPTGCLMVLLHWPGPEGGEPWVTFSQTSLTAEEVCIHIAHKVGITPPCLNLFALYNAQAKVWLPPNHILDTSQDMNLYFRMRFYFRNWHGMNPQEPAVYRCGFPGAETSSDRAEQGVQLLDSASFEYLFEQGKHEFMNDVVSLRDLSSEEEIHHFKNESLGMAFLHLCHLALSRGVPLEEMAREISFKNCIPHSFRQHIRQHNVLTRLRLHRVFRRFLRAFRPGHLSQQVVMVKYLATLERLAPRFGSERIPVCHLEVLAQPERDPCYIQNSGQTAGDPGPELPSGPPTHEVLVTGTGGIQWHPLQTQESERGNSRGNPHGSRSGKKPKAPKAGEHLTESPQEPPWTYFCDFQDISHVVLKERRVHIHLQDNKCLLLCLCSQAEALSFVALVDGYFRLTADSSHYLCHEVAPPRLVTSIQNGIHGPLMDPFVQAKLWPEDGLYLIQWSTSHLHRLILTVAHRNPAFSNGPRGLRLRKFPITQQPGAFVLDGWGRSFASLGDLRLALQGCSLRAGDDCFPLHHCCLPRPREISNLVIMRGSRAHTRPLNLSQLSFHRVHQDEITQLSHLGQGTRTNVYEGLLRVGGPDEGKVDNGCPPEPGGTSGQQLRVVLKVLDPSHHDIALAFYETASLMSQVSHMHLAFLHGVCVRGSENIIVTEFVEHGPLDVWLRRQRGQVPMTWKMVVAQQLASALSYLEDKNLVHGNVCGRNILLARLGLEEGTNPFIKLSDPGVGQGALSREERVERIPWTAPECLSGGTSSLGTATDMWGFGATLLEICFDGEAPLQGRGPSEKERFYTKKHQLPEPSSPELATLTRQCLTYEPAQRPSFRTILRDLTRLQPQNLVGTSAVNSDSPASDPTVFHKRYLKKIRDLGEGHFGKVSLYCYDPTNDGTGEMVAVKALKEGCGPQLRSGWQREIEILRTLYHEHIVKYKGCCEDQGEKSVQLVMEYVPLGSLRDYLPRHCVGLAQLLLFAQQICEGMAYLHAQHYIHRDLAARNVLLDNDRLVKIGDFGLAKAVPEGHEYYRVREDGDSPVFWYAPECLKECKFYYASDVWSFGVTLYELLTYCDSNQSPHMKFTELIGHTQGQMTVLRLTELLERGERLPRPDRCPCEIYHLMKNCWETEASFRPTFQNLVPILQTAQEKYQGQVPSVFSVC
# [30] = Metabolic stability in mouse liver microsomes assessed as parent compound remaining after 10 mins; format: ADME, Microsome; settings: read-out: Stability
# [31] = Cmax in Balb/c mouse assessed as 6-((5-Fluoropyridin-2-yl)amino)-4-((2-(methylsulfonyl)phenyl)amino)nicotinamide level at 10 mg/kg, po after 7 hrs; format: ADME, organism-based; parameters: dose 10 mg/kg, route oral; settings: in vivo
# [32] = Cmax in Balb/c mouse assessed as 6-((5-Fluoropyridin-2-yl)amino)-4-((2-(methylsulfonyl)phenyl)amino)nicotinamide level at 3 mg/kg, iv after 0.5 hrs; format: ADME, organism-based; parameters: dose 3 mg/kg, route intravenous; settings: in vivo
# [33] = AUClast in Balb/c mouse assessed as 6-((5-Fluoropyridin-2-yl)amino)-4-((2-(methylsulfonyl)phenyl)amino)nicotinamide level at 3 mg/kg, iv; format: ADME, organism-based; parameters: dose 3 mg/kg, route intravenous, time 0 - last; settings: in vivo
# [34] = target: 3',5'-cyclic-AMP phosphodiesterase 4D (Homo sapiens, UniProt Q08499); test: Inhibition of [3H]cAMP binding to recombinant human His-Tb fused PDE4D2 (86 to 413 residues) expressed in Escherichia coli using [3H]cAMP as substrate preincubated for 10 mins followed by [3H]cAMP addition and measured after 1 hr by scintillation proximity assay
# [35] = Permeability across apical to basolateral side in human Caco2 cells; format: ADME, cell-based; settings: Caco-2, read-out: permeability
# [36] = Drug concentration in Balb/c mouse at 10 mg/kg, po after 5 hrs; format: ADME, organism-based; settings: in vivo, read-out: Drug uptake
# [37] = AUClast in mouse at 10 mg/kg, po; format: ADME, organism-based; parameters: dose 10 mg/kg, route oral, time 0 - last; settings: in vivo
# [38] = Half life in Balb/c mouse at 3 mg/kg, iv; format: ADME, organism-based; settings: in vivo
# [39] = Cmax in Balb/c mouse assessed as 6-((5-Fluoropyridin-2-yl)amino)-4-((2-(methylsulfonyl)phenyl)amino)nicotinamide level at 10 mg/kg, po after 0.05 hrs; format: ADME, organism-based; parameters: dose 10 mg/kg, route oral; settings: in vivo
# JAK1/TYK2 = JAK1/TYK2 (Homo sapiens, UniProt P23458+P29597); test: Inhibition of TYK2/JAK1 in IFNalpha-stimulated human Kit225 cells by steady-glo luciferase assay
# [40] = Cmax in Balb/c mouse assessed as 6-((5-Fluoropyridin-2-yl)amino)-4-((2-(methylsulfonyl)phenyl)amino)nicotinamide level at 3 mg/kg, iv after 5 hrs; format: ADME, organism-based; parameters: dose 3 mg/kg, route intravenous; settings: in vivo
# [41] = Efflux ratio of permeability in human Caco2; format: ADME, cell-based; settings: Caco-2
# [42] = Cmax in Balb/c mouse assessed as 6-((5-Fluoropyridin-2-yl)amino)-4-((2-(methylsulfonyl)phenyl)amino)nicotinamide level at 3 mg/kg, iv after 1 hr; format: ADME, organism-based; parameters: dose 3 mg/kg, route intravenous; settings: in vivo
# [43] = Oral bioavailability in Balb/c mouse at 10 mg/kg; format: ADME, organism-based; settings: in vivo
# [44] = Volume of distribution at steady state in Balb/c mouse at 3 mg/kg, iv; format: ADME, organism-based; settings: in vivo, read-out: Vdss
# [45] = Drug concentration in Balb/c mouse at 10 mg/kg, po after 0.05 hrs; format: ADME, organism-based; settings: in vivo, read-out: Drug uptake
# [46] = Cmax in mouse at 10 mg/kg, po; format: ADME, organism-based; parameters: dose 10 mg/kg, route oral; settings: in vivo
# [47] = Drug concentration in Balb/c mouse at 3 mg/kg, iv after 1 hr; format: ADME, organism-based; settings: in vivo, read-out: Drug uptake
# JAK2/JAK1 = JAK2/JAK1 (Homo sapiens, UniProt O60674+P23458); test: Inhibition of JAK1/JAK2 (unknown origin) in GM-CSF stimulated cells by cell based assay
# [48] = target: T2, Voltage-gated inwardly rectifying potassium channel KCNH2; test: Inhibition of human ERG by patch clamp assay
# [49] = Partition coefficient, log P of compound by HPLC analysis; format: physicochemical; settings: octanol/water
# JAK3/JAK1 = JAK3/JAK1 (Homo sapiens, UniProt P23458+P52333); test: Inhibition of JAK1/JAK3 (unknown origin) in IL-2 stimulated cells by cell based assay
# [50] = Drug concentration in Balb/c mouse at 10 mg/kg, po after 3 hrs; format: ADME, organism-based; settings: in vivo, read-out: Drug uptake
smiles,measurement,setting,value
CNC(=O)c1cnc(Nc2ccc(F)cn2)cc1Nc1ccccc1S(C)(=O)=O,Cmax,[1],47 nM
same,clearance,[2],15 mL/min/kg
same,concentration at 5 h,[3],440 nM
same,Cmax,[4],14 nM
same,remaining at 10 min,[5],85%
same,Cmax,[6],21 nM
same,AUC(0-t),[7],7 µM·h
same,concentration at 0.5 h,[8],1400 nM
same,pIC50,[9],< 4.30
same,Cmax,[10],51 nM
same,pIC50,JAK2/TYK2,7.20
same,concentration at 3 h,[11],530 nM
same,remaining at 10 min,[12],90%
same,AUClast,[13],200 nM·h
same,concentration at 0.5 h,[14],2100 nM
same,pIC50,[15],9.04
same,concentration at 7 h,[16],190 nM
same,concentration at 1 h,[17],1600 nM
same,pIC50,[18],< 4.30
same,concentration at 0.05 h,[19],3.5 µM
same,pIC50,[20],4.60
same,concentration at 7 h,[21],450 nM
same,pIC50,[22],< 4.30
same,Cmax,[23],33 nM
same,Cmax,[24],54 nM
same,pIC50,[25],6.74
same,Cmax,[26],28 nM
same,AUC(0-t),[27],8.1 µM·h
same,pIC50,[28],7.00
same,pIC50,[29],6.35
same,remaining at 10 min,[30],87%
same,Cmax,[31],24 nM
same,Cmax,[32],110 nM
same,AUClast,[33],360 nM·h
same,pIC50,[34],5.38
same,Papp A→B,[35],4.8 ×10⁻⁶ cm/s
same,concentration at 5 h,[36],1400 nM
same,AUC(0-t),[37],9.83 µM·h
same,half-life,[38],180 min
same,Cmax,[39],9.8 nM
same,pIC50,JAK1/TYK2,7.20
same,Cmax,[40],41 nM
same,efflux ratio,[41],10
same,Cmax,[42],84 nM
same,bioavailability,[43],35%
same,Vd,[44],2.8 L/kg
same,concentration at 0.05 h,[45],780 nM
same,Cmax,[46],1620 nM
same,concentration at 1 h,[47],2100 nM
same,pIC50,JAK2/JAK1,< 4.90
same,pIC50,[48],5.60
same,logP,[49],2.61
same,pIC50,JAK3/JAK1,< 4.90
same,concentration at 3 h,[50],1500 nM
